We go through 25 compounds from patent US8354414B2, “Substituted bicyclic pyrimidines” (Cephalon, Inc, priority 2006, dated 2013).

Like-named read-outs stand apart in the source and are kept apart here. A value given as a limit tells only on which side of the number the result lay.

One series deals with T1, CDK5/GST-p25 (Homo sapiens, UniProt Q00535).
T1 construct: The final construct, encoding for full-length human CDK5; made in house; host or cells: Sf21 insect cells (baculovirus co-infection)
In words: Inhibition of CDK5/GST-p25 kinase activity (ELISA with time-resolved fluorescence readout). The series is classed as biochemical. A digest of the protocol:
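Sf21-coexpressed full-length human CDK5 with GST-p25 (p35 aa 108-307), glutathione-purified, at 2 ng/ml was reacted for 20 min at 37 °C on plate-coated GST-Rb(773-928). Buffer was 20 mM HEPES pH 7.2, 10 µM ATP, 10 mM MgCl2 and 2.5% DMSO. Phospho-Rb Ser-780 was detected by Eu-labelled antibody TRF, and IC50 curves were fitted.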

The target of the next series is T2, His6-GSK-3β (Homo sapiens, UniProt P49841).
T2 construct: made in house; host or cells: Sf21 insect cells (baculovirus)
In words: Inhibition of His6-GSK-3β kinase activity (ELISA-based format, time-resolved fluorescence readout). The series is classed as biochemical. The following applies: for IC50: read-out: GSK3β IC50. The gist of the method:
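N-terminal His6-tagged full-length human GSK-3β (aa 2-419) expressed in Sf21 cells, 200 ng/ml, phosphorylating plate-coated GST-Rb with 20 μM ATP in pH 7.2 HEPES buffer, 30 min at 37° C. Phospho-Rb (Ser-780) detected by antibody plus Eu-labelled secondary, time-resolved fluorescence; IC50 from curves.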
For orientation: ELISA stands for enzyme-linked immunosorbent assay.

T1 sequence (Q00535 whole entry): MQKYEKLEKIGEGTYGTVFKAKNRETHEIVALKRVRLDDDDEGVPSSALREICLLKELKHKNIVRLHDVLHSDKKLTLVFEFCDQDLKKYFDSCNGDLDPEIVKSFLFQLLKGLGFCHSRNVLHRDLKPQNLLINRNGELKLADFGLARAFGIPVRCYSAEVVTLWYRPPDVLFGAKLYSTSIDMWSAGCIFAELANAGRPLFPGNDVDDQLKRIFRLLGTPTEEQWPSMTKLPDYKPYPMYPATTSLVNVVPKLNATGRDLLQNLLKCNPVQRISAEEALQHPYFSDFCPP
T1 sequence (Q15078 108-307 partner limits assumed): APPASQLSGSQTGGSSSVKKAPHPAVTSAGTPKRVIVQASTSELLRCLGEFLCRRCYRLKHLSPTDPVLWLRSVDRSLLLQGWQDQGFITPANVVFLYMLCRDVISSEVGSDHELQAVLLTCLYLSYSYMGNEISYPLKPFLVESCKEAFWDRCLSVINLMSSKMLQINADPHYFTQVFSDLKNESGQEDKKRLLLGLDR
T2 sequence (P49841 2-419): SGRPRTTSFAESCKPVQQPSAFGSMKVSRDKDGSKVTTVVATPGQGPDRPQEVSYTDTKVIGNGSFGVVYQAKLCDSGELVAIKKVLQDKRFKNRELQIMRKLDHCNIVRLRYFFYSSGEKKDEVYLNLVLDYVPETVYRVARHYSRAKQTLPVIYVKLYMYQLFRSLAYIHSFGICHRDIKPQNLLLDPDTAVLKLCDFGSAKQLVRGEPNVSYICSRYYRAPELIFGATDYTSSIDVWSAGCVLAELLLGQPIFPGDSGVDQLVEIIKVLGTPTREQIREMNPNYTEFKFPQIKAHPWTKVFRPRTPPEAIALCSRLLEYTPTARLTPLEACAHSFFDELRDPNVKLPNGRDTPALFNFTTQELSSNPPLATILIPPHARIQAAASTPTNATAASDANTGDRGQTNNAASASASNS

As for `COCCNc1nc(C2C(=O)Nc3ccc(Br)cc32)c2cn(CC(C)C)nc2n1` (stereo not drawn) [Example 263, 5-Bromo-3-[2-isobutyl-6-(2-methoxy-ethylamino)-2H-pyrazolo[3,4-d]pyrimidin-4-yl]-1,3-dihydro-indol-2-one], the melting point fell in the range of 294 to 296.8 °C. This compound yielded an IC50 at CDK5/GST-p25 (class symbols) below 0.3 µM. Besides, the half-maximal inhibitory concentration (IC50) at His6-GSK-3β (class symbols) is below 0.3 µM.
In the case of `COCCn1cc2c(C3C(=O)Nc4ccc(Br)cc43)nc(NCCCN(C)C)nc2n1` (stereo not drawn) [Example 233, 5-Bromo-3-[6-(3-dimethylamino-propylamino)-2-(2-methoxy-ethyl)-2H-pyrazolo [3,4-d]pyrimidin-4-yl]-1,3-dihydro-indol-2-one], the melting point was 297 to 298 °C. Besides, the IC50 on CDK5/GST-p25 (class symbols) was below 0.3 µM. For the same compound, on His6-GSK-3β (class symbols), the IC50 was below 0.3 µM.
Consider `CCCn1cc2c(C3C(=O)Nc4ccc(Br)cc43)nc(NC[C@@H](C)N)nc2n1` (stereo partly drawn) [Example 369, 3-[6-(2-(R)-Amino-propylamino)-2-propyl-2H-pyrazolo[3,4-d]pyrimidin-4-yl]-5-bromo-1,3-dihydro-indol-2-one], for which the melting point was in the range of 247 to 250 °C. At CDK5/GST-p25 (class symbols), this compound gave an IC50 of 0.3 to 3 µM. For the same compound, the IC50 at His6-GSK-3β (class symbols) was below 0.3 µM.
Taken in the same sequence, the figures for `O=C1Nc2ccc(Br)cc2C1c1ncnc2c1cnn2C1CCCCC1` (stereo not drawn) [Example 75, 5-Bromo-3-(1-Cyclohexyl-1H-pyrazolo[3,4-d]pyrimidin-4-yl)-1,3-dihydro-indol-2-one] were 305 to 308 °C, above 10 µM and above 10 µM.
The matching figures for `O=C1Nc2ccc(F)cc2C1c1ncnc2c1cnn2C1CCCCC1` (stereo not drawn) [Example 72, 3-(1-Cyclohexyl-1H-pyrazolo[3,4-d]pyrimidin-4-yl)-5-fluoro-1,3-dihydro-indol-2-one]: 282 to 286 °C, above 10 µM and above 10 µM.
Turning to `C=CCNc1nc(C2C(=O)Nc3ccc(C#N)cc32)c2cn(C3CCCC3)nc2n1` (stereo not drawn) [Example 149, 3-(6-Allylamino-2-cyclopentyl-2H-pyrazolo[3,4-d]pyrimidin-4-yl)-2-oxo-2,3-dihydro-1H-indole-5-carbonitrile], the melting point is above 300 °C. On CDK5/GST-p25 (class symbols), this compound displayed an IC50 below 0.3 µM. Further, the IC50 on His6-GSK-3β (class symbols) is below 0.3 µM.
In turn, `O=C1Nc2ccc(C(F)(F)F)cc2C1c1nc(NCCCN2CCOCC2)nc2nn(C3CCCC3)cc12` (stereo not drawn) [Example 162, 3-[2-cyclopentyl-6-(3-morpholin-4-yl-propylamino)-2H-pyrazolo [3,4-d]pyrimidin-4-yl]-5-trifluoromethyl-1,3-dihydro-indol-2-one] displayed a melting point of 288 to 291 °C. Moreover, at CDK5/GST-p25 (numeric bounds), the concentration for half-maximal inhibition (IC50) is above 1 µM. For the same compound, the half-inhibitory concentration (IC50) at His6-GSK-3β (class symbols) is below 0.3 µM.
Take `N#Cc1cccc2c1NC(=O)C2c1ncnc2c1cnn2C1CCCC1` (stereo not drawn) [Example 64, 3-(1-Cyclopentyl-1H-pyrazolo [3,4-d]pyrimidin-4-yl)-2-oxo-2,3-dihydro-1H-indole-7-carbonitrile]: the melting point fell in the range of 327 to 332 °C. On CDK5/GST-p25 (class symbols), this compound showed an IC50 above 10 µM. Also, at His6-GSK-3β (class symbols), the IC50 is above 10 µM.
Compound `CC(C)Cn1cc2c(C3C(=O)Nc4ccc(Br)cc43)nc(NCCCN3CCOCC3)nc2n1` (stereo not drawn) [Example 265, 5-Bromo-3-[2-isobutyl-6-(3-morpholin-4-yl-propylamino)-2H-pyrazolo [3,4-d]pyrimidin-4-yl]-1,3-dihydro-indol-2-one] gave a melting point of 271 to 274 °C. The half-inhibitory concentration (IC50) against CDK5/GST-p25 (class symbols) was below 0.3 µM. The concentration for half-maximal inhibition (IC50) at His6-GSK-3β (class symbols) was below 0.3 µM.
The compound `CCOCCn1cc2c(C3C(=O)Nc4ccc(Br)cc43)nc(Cl)nc2n1` (stereo not drawn) [Example 236, 5-Bromo-3-[6-chloro-2-(2-ethoxy-ethyl)-2H-pyrazolo [3,4-d]pyrimidin-4-yl)-1,3-dihydro-indol-2-one] registered a melting point of 260 to 263 °C. This compound also showed a 50% inhibitory concentration (IC50) on CDK5/GST-p25 (class symbols) above 10 µM. Besides, the 50% inhibitory concentration (IC50) at His6-GSK-3β (class symbols) is above 10 µM.
Compound `C=CCNc1nc(C2C(=O)Nc3ccccc32)c2cn(C3CCCC3)nc2n1` (stereo not drawn) [Example 243, 3-(6-Allylamino-2-cyclopentyl-2H-pyrazolo[3,4-d]pyrimidin-4-yl)-1,3-dihydro-indol-2-one] displayed a melting point above 300 °C. In addition, the inhibition at 10 µM against CDK5/GST-p25 came to 63%. In addition, at His6-GSK-3β (numeric bounds), the IC50 was above 1 µM.
For `CCCCCn1cc2c(C3C(=O)Nc4ccc(C#N)cc43)nc(NC)nc2n1` (stereo not drawn) [Example 294, 3-(6-Methylamino-2-pentyl-2H-pyrazolo [3,4-d]pyrimidin-4-yl)-2-oxo-2,3-dihydro-1H-indole-5-carbonitrile], the melting point was above 310 °C. The inhibition at 10 µM at CDK5/GST-p25 turned out to be 73%. Besides, the “GSK3β % @10 μM” value on His6-GSK-3β (@10 μM) stood at 70% @10 μM.
In the case of `CC(C)Cn1cc2c(C3C(=O)Nc4ccc(Cl)cc43)nc(NCCN(C)C)nc2n1` (stereo not drawn) [Example 270, 5-Chloro-3-[6-(2-dimethylamino-ethylamino)-2-isobutyl-2H-pyrazolo[3,4-d]pyrimidin-4-yl]-1,3-dihydro-indol-2-one], the melting point fell in the range of 264 to 265.5 °C. In addition, the IC50 against CDK5/GST-p25 (class symbols) was in the range of 0.3 to 3 µM. Moreover, on His6-GSK-3β (class symbols), the IC50 is below 0.3 µM.
The matching figures for `CCOCCn1cc2c(C3C(=O)Nc4ccc(Br)cc43)nc(NCCN(C)C)nc2n1` (stereo not drawn) [Example 237, 5-Bromo-3-[6-(2-dimethylamino-ethylamino)-2-(2-ethoxy-ethyl)2H-pyrazolo[3,4-d]pyrimidin-4-yl]-1,3-dihydro-indol-2-one]: 247 to 251 °C, below 0.3 µM and below 0.3 µM.
The matching figures for `N#Cc1cccc2c1NC(=O)C2c1ncnc2c1cnn2C1CCCCC1` (stereo not drawn) [Example 70, 3-(1-Cyclohexyl-1H-pyrazolo [3,4-d]pyrimidin-4-yl)-2-oxo-2,3-dihydro-1H-indole-7-carbonitrile]: above 300 °C, above 10 µM and above 10 µM.
The compound `O=C1Nc2cc(F)ccc2C1c1ncnc2c1cnn2C1CCCCC1` (stereo not drawn) [Example 73, 3-(1-Cyclohexyl-1H-pyrazolo[3,4-d]pyrimidin-4-yl)-6-fluoro-1,3-dihydro-indol-2-one] had a melting point of 277 to 280 °C. Further, the IC50 against CDK5/GST-p25 (class symbols) was above 10 µM. At His6-GSK-3β (class symbols), the IC50 was above 10 µM.
With `O=C1Nc2cc(F)ccc2C1c1ncnc2nn(C3CCCCC3)cc12` (stereo not drawn) [Example 50, 3-(2-cyclohexyl-2H-pyrazolo[3,4-d]pyrimidin-4-yl)-6-fluoro-1,3-dihydro-indol-2-one], the melting point was 297 to 300 °C. Besides, the concentration for half-maximal inhibition (IC50) at CDK5/GST-p25 (class symbols) is 0.3 to 3 µM. The 50% inhibitory concentration (IC50) at His6-GSK-3β (class symbols) lay within 0.3 to 3 µM.
In the case of `Cn1nc([N+](=O)[O-])c2c(C3C(=O)Nc4ccc(C#N)cc43)ncnc21` (stereo not drawn) [Example 148, 3-(1-Methyl-3-nitro-1H-pyrazolo[3,4-d]pyrimidin-4-yl)-2-oxo-2,3-dihydro-1H-indole-5-carbonitrile], the melting point is > 300 °C (dec.). On CDK5/GST-p25 (class symbols), this compound yielded a half-inhibitory concentration (IC50) above 10 µM. Further, on His6-GSK-3β (class symbols), the IC50 was above 10 µM.
On to `C[C@H](O)CNc1nc(C2C(=O)Nc3ccc(Cl)cc32)c2cn(C3CCCC3)nc2n1` (stereo partly drawn) [Example 374], for which the melting point was above 300 °C. The same compound yielded an inhibition at 10 µM at CDK5/GST-p25 of 56%. Moreover, on His6-GSK-3β (class symbols), the IC50 was below 0.3 µM.
Consider `O=C1Nc2cc(F)ccc2C1c1ncnc2nn(C3CCCC3)cc12` (stereo not drawn) [Example 41, 3-(2-Cyclopentyl-2H-pyrazolo[3,4-d]pyrimidin-4-yl)-6-fluoro-1,3-dihydro-indol-2-one], for which the melting point lay in the range of 258 to 263 °C. At CDK5/GST-p25 (class symbols), this compound registered a 50% inhibitory concentration (IC50) of 0.3 to 3 µM. The IC50 on His6-GSK-3β (class symbols) was 0.3 to 3 µM.
Compound `O=C1Nc2cc(Cl)ccc2C1c1ncnc2c1cnn2C1CCCC1` (stereo not drawn) [Example 59, 6-Chloro-3-(1-cyclopentyl-1H-pyrazolo[3,4-d]pyrimidin-4-yl)-1,3-dihydro-indol-2-one] yielded a melting point of 288 to 291 °C. Moreover, the half-maximal inhibitory concentration (IC50) against CDK5/GST-p25 (class symbols) is above 10 µM. For the same compound, at His6-GSK-3β (class symbols), the half-maximal inhibitory concentration (IC50) was 0.3 to 3 µM.
In the case of `CCOCCn1cc2c(C3C(=O)Nc4ccc(Cl)cc43)nc(Cl)nc2n1` (stereo not drawn) [Example 211, 5-Chloro-3-[6-chloro-2-(2-ethoxy-ethyl)-2H-pyrazolo[3,4-d]pyrimidin-4-yl]-1,3-dihydro-indol-2-one], the melting point is above 300 °C. This compound gave an IC50 at CDK5/GST-p25 (class symbols) above 10 µM. Moreover, the half-maximal inhibitory concentration (IC50) at His6-GSK-3β (class symbols) was above 10 µM.
As for `O=C1Nc2ccc(Cl)cc2C1c1ncnc2nn(C3CCCCC3)cc12` (stereo not drawn) [Example 48, 5-Chloro-3-(2-cyclohexyl-2H-pyrazolo[3,4-d]pyrimidin-4-yl)-1,3-dihydro-indol-2-one], the melting point fell in the range of 294 to 298 °C. Moreover, at CDK5/GST-p25 (class symbols), the IC50 fell in the range of 0.3 to 3 µM. Besides, the IC50 at His6-GSK-3β (class symbols) is below 0.3 µM.
The matching figures for `CN(C)CCNc1nc(C2C(=O)Nc3ccc(Cl)cc32)c2cn(C3CCCC3)nc2n1` (stereo not drawn) [Example 376, 5-Chloro-3-[2-cyclopentyl-6-(2-dimethylamino-ethylamino)-2H-pyrazolo [3,4-d]pyrimidin-4-yl]-1,3-dihydro-indol-2-one]: 145 to 148 °C, above 10 µM and 0.3 to 3 µM.
Taken in the same sequence, the figures for `CCCn1cc2c(C3C(=O)Nc4ccc(Br)cc43)nc(NCCN3CCOCC3)nc2n1` (stereo not drawn) [Example 202, 5-Bromo-3-[6-(2-morpholin-4-yl-ethylamino)-2-propyl-2H-pyrazolo [3,4-d]pyrimidin-4-yl]-1,3-dihydro-indol-2-one] were 299 to 303 °C, below 0.3 µM and below 0.3 µM.

What is called melting point is the temperature of the solid-liquid transition. By IC50 is commonly meant the point on the concentration scale where inhibition reaches its midpoint. What is called inhibition is the drop in the measured response relative to a control, in per cent. Read a low inhibition as a weak effect.
